{"source": "patent US10323229B1", "about": "“Three-dimensional human stem cell-derived cortical spheroid model” (The Florida State University Research Foundation, Inc., priority 2015, dated 2019)", "key": {"[1]": {"tested_on": "hiPSC-derived neural cells", "assay": "Carbenoxolone neuroprotection from NMDA-induced neurotoxicity (MTT, ROS, poly caspase)", "assay_type": "cell-based, human", "method": "(§1) The hiPSC-derived neural cells were tested to determine response to different drugs and small molecules. Neural cells were formed as described in Example 2. After differentiation, the derived neural cells were replated onto Geltrex-coated 96-well plate and treated with N-methyl-D-aspartate (NMDA) at 0, 0.05, 0.5, 1 mM to mimic general neural toxicity. Cells were tested to determine response to neural protective molecules. Carbenoxolone (Cx, Sigma) (Beraki, et al., A pharmacological screening approach for discovery of neuroprotective compounds in ischemic stroke, PLoS One, 8 (2013) e69233) was added at different doses (0, 10 µM, 50 µM) of Cx were added with 0.5 mM NMDA for the first 24 h. Then samples were washed with phosphate buffer and the same doses of Cx were added for another 24 h. The cells were then characterized by MTT, reactive oxygen species (ROS), and poly caspase assays.\n(§2) Briefly, the replated neural cells were incubated with 5 mg/mL 3-(4,5-Dimethylthiazol-2-yl)-2,5-diphenyltetrazolium bromide (MTT, Sigma) solution. The absorbance was measured at 500 nm using a microplate reader (Biorad, Richmond, Calif.). Image-iT™ Live Green Reactive Oxygen Species Detection kit (Molecular Probes) was used to detect the intracellular ROS. Briefly, neural cells were seeded at 1×10^5/mL in 96-well plates (100 μL). After 3 days, the cells were rinsed with Hank's balanced salt solution and incubated with 25 μM carboxy-H2DCFDA for 30 min at 37° C. The samples were washed and measured under a fluorescence microplate reader using 488 nm excitation wavelength and 530 nm for emission (Bio-Tek, FLx800, Winoosk, Vt.). Image-iT™ Live Green Poly Caspase Detection kit (Molecular Probes) was used to detect the expression of caspases. The replated cells were incubated for one hour with the fluorescent inhibitor of caspases reagent and analyzed by a fluorescence microplate reader."}, "[2]": {"tested_on": "neuronal cells derived from hiPSK3 cells", "assay": "MMP-2/-9 inhibitor effects: neurite density, MTT, cell counting", "assay_type": "cell-based, human", "conditions": "phase contrast, 1 μM", "method": "Derived neural cells, as described above, were replated onto Geltrex-coated 96-well plate and treated with MMP inhibitors: ARP 100 (MMP-2 inhibitor), MMP-9 inhibitor I, or SB-3CT (MMP-2 and MMP-9 inhibitor) (all from Santa Cruz) at 1 μM.\nThe cells were then characterized by MTT, reactive oxygen species (ROS), and poly caspase assays. For some experiments, cell numbers were counted using hemocytometer after trypsin/EDTA dissociation.\nas §2, with “Image-iT™ Live Green Poly Caspase Detection kit (Molecular Probes) was used to detect the expression of caspases.” left out"}, "[3]": {"tested_on": "hiPSC-derived neural cells", "assay": "NMDA-induced neurotoxicity (MTT, ROS, poly caspase)", "assay_type": "cell-based, human", "method": "as §1, §2"}, "[4]": {"tested_on": "neural cells derived from human iPSK3 cells", "assay": "Aβ1-42 oligomer-induced response in presence of GSK-3β inhibitor CHIR99021 (MTT, ROS, caspase)", "assay_type": "cell-based", "conditions": "CH 10 μM with 1 μM Aβ1-42 oligomers, day 46 cells", "text": "The cells were subsequently characterized by MTT, ROS, and poly caspase assays (Yan, et al., Cryopreservation of embryonic stem cell-derived multicellular neural aggregates labeled with micron-sized particles of iron oxide for magnetic resonance imaging, Biotechnol Prog, 31 (2015) 510-521; Sart, et al., The microenvironment of embryoid bodies modulated the commitment to neural lineage post-cryopreservation, Tissue Eng Part C: Methods., 21 (2015) 356-366). To evaluate the influence of glycogen synthase kinase (GSK)-3p inhibitor, CHIR99021 (1 or 10 μM) was added to the cultures treated with 1 μM Aβ1-42 oligomers for three days and characterized.\nas §2"}, "hiPSK3-derived EBs": {"tested_on": "hiPSK3-derived EBs", "assay": "Neural patterning, immunocytochemistry marker quantification", "assay_type": "cell-based, human", "conditions": "day 42 cells, CHIR 3 μM added to purmorphamine/FGF-2/RA", "method": "Cells were analyzed using phase contrast microscopy, as described in Example 1 or immunohistochemistry. […] After washing, the cells were incubated with the corresponding secondary antibody: Alexa Fluor® 488 goat anti-Mouse IgG, Alexa Fluor® 488 or 594 goat anti-Rabbit IgG, or Alexa Fluor® 594 donkey anti-goat IgG (Life Technologies). The samples were stained with Hoechst 33342 and visualized under a fluorescent microscope (Olympus IX70, Melville, N.Y.). The images from five independent fields (800-1000 cells) were analyzed using ImageJ software. The proportion of positive cells was calculated based on the intensity of marker of interest normalized to the nuclear intensity, indicating the relative expression among different conditions. A neuronal model was prepared using LDN/SB induction, as discussed in Example 2. Neural patterning of hiPSCs was tuned through treatment with cyclopamine (the antagonist of SHH signaling) or purmorphamine (the agonist of SHH signaling) (Stanton & Peng, Small-molecule modulators of the Sonic Hedgehog signaling pathway, Mol Biosyst, 6 (2010) 44-54). […] After 8 days, the cells were treated with different growth factor combinations: […] (3) FGF-2 (10 ng/mL) and cyclopamine (1 μM, Sigma). […]"}}}
{"smiles": "CC1(C)[C@@H](OC(=O)CCC(=O)O)CC[C@]2(C)[C@H]3C(=O)C=C4[C@@H]5C[C@@](C)(C(=O)O)CC[C@]5(C)CC[C@@]4(C)[C@]3(C)CC[C@@H]12", "note": "[carbenoxolone, Carbenoxolone]", "values": [{"measurement": "increase in MTT activity", "setting": "[1]; carbenoxolone 10 or 50 μM with 0.5 mM NMDA", "result": "28-56%"}, {"measurement": "expression of ROS", "setting": "[1]; carbenoxolone with 0.5 mM NMDA", "result": "reduced expression of ROS"}, {"measurement": "caspase activity", "setting": "[1]; carbenoxolone with 0.5 mM NMDA, all three groups", "result": "decreased"}]}
{"smiles": "O=S(=O)(CC1CS1)c1ccc(Oc2ccccc2)cc1", "note": "(stereo not drawn) [SB-3CT]", "values": [{"measurement": "neurite density", "setting": "[2]; Cyclo group (more cortical glutamatergic neurons)", "result": "little changes"}, {"measurement": "neurite density", "setting": "[2]; Purmo group (more motor neurons)", "result": "reduction of neurite density"}]}
{"smiles": "CN[C@H](CC(=O)O)C(=O)O", "note": "[NMDA, N-methyl-D-aspartate]", "values": [{"measurement": "caspase activity", "setting": "[3]; NMDA 0-1 mM", "result": "logarithmic relationship with NMDA concentration"}, {"measurement": "expression of ROS", "setting": "[3]; NMDA 0-1 mM", "result": "increased logarithmically"}, {"measurement": "reduction of MTT activity", "setting": "[3]; NMDA 0.5 or 1 mM, all three groups (control, Purmo, Cyclo)", "result": "30-50%"}]}
{"smiles": "Cc1c[nH]c(-c2cnc(NCCNc3ccc(C#N)cn3)nc2-c2ccc(Cl)cc2Cl)n1", "note": "[CHIR99021]", "values": [{"measurement": "ROS levels", "setting": "[4]", "result": "reduced"}, {"measurement": "caspase levels", "setting": "[4]", "result": "reduced"}, {"measurement": "increase of MTT activity", "setting": "[4]; vs. groups without CH or with 1 μM CH", "result": "25-45%"}, {"measurement": "expression of ISL1 and HB9 (motor neuron differentiation)", "setting": "hiPSK3-derived EBs", "result": "increased"}]}
